Legend:
Format in all cases: in vivo
Botrytis cinerea [1] = assay: Test Example 1: preventive effect on Botrytis disease of cucumber; conditions: cucumber (Sagami Hanjiro), flowable formulation, 200 ppm foliar spray before inoculation, 12° C. for 5 days under high humidity
Experimental: (§1) The area of lesions on the test plants at testing was visually observed, and the control effect was evaluated by comparing the area of lesions on test plants treated with the invented compound with the area of lesions on untreated plants.
Test for showing preventive effect on Botrytis disease of cucumber (Botrytis cinerea):
Sand soil was packed in a plastic pot, and seeds of cucumber (variety: Sagami Hanjiro) were sowed therein and grown for 12 days in a greenhouse. Each of the invented compounds (1)-(5) and the comparative compound (A) was formulated into flowable formulation in accordance with Formulation Example 6, and it was diluted with water to a given concentration (200 ppm) and was sprayed onto the foliage of the cucumber so that a sufficient amount of the compound would be applied to the surface of leaves of the cucumber. After spraying, the plant was air-dried and PDA medium containing spores of Botrytis cinerea was placed on the surface of leaves of the cucumber. After the inoculation, the plant was left at 12° C. for 5 days under high humidity, and then the area of lesions was examined. As a result, the lesion area on the plant treated with the invented compounds (1)-(5) was less than 10% of the lesion area on the untreated plant. The lesion area on the plant treated with the comparative compound (A) was 98% of the untreated plant.

Botrytis cinerea [2] = assay: Test Example 2: curative effect on Botrytis disease of cucumber; conditions: cucumber (Sagami Hanjiro), wettable powder, 200 ppm foliar spray after inoculation, 12° C. for 2 days under high humidity
Experimental: as §1
Test for showing curative effect on Botrytis disease of cucumber (Botrytis cinerea):
Sand soil was packed in a plastic pot, and seeds of cucumber (variety: Sagami Hanjiro) were sowed therein and grown for 12 days in a greenhouse. A PDA medium containing spores of Botrytis cinerea was placed on the surface of leaves of the cucumber to inoculate the surface of leaves of the cucumber. Then, the wettable powder of each of the invented compounds (1) and (2) and the comparative compound (A) was diluted with water to a concentration of 200 ppm and was sprayed onto the foliage of the cucumber so that a sufficient amount of the compound would be applied to the surface of leaves of the cucumber. After spraying, the plant was air-dried and left at 12° C. for 2 days under high humidity, and then the area of lesions was examined.
As a result, the lesion area on the plant treated with the invented compounds (1) and (2) was respectively less than 11% and less than 15% of the lesion area on the plant of untreated plant. The lesion area on the plant treated with the comparative compound (A) was 98% of the untreated plant.

Magnaporthe grisea = conditions: rice (Nihonbare), flowable formulation, 500 ppm foliar spray before inoculation, 5 days after inoculation

Row | SMILES | lesion area on the treated plant as % of the lesion area on the untreated plant (Botrytis cinerea [1]) [%] | lesion area on the treated plant as % of the lesion area on the untreated plant (Botrytis cinerea [2]) | lesion area on the treated plant as % of the lesion area on the untreated plant (Magnaporthe grisea) [%]
1 | CC(C)CCOc1cccc(CNC(=O)c2ccc3ncccc3c2)c1 [comparative compound (A), N-(3-(3-methylbutoxy)phenyl)methyl-quinoline-6-carboxamide] | 98 | 98% | 98
2 | COc1cccc(CNC(=O)c2ccc3ncccc3c2)c1F [invented compound (1), N-(2-fluoro-3-methoxyphenyl)methyl-quinoline-6-carboxamide] |  | less than 11% | 
3 | CCOc1cccc(CNC(=O)c2ccc3ncccc3c2)c1F [invented compound (2), N-(3-ethoxy-2-fluorophenyl)methyl-quinoline-6-carboxamide] |  | less than 15% | 

— patent US20100227884A1 (priority 2007, published 2010)
